Article PMC7269486, “MK-571, a Cysteinyl Leukotriene Receptor 1 Antagonist, Inhibits Hepatitis C Virus Replication” (Antimicrobial Agents and Chemotherapy, 2020)
“And” between values parts separate entries of the source, which are not always exact repeats. Equal entries are not always repeated. “Also recorded” adds a separate entry of the source. Where two headings read alike, the source gives them in different places.

Columns and labels:
[1] = Cytotoxicity assay (CellTiter 96 AQueous One); assay type: cell-based; settings: human
Method: Assessment of the compound cytotoxicity was performed with the CellTiter 96 AQueous One assay (Promega), according to the manufacturer’s instructions. Huh7.5 cells were seeded at a density of 5,000 cells/well in a 96-well plate and incubated 24 h before addition of increasing concentrations of the indicated compounds. After 48 h, cells were incubated 4 h in the presence of the CellTiter 96 AQueous One solution reagent, and absorbance was measured at 490 nm.

[2] = tested on: HCV genotype 1b subgenomic replicon; assay: Anti-HCV activity in the subgenomic replicon model (HCV-SGR RNA by RT-qPCR in Huh7.5-SGR cells); assay type: cell-based, Hepatitis C virus; settings: for effect on the anti-HCV activity of MK-571: compound added to MK-571 (10 or 50 μM); for effect on the anti-HCV activity of MK-571 / effect on HCV-SGR RNA levels / replication: increasing concentrations; for effect on HCV-SGR RNA levels / replication: compound alone; for effect of MRP-1 inhibitor on MK-571 anti-HCV activity: added to MK-571 (probenecid 1 mM), data not shown
Method: Plasmid I389-Neo/NS3-3′/5.1, which contains a neomycin resistance gene and an HCV genotype 1b subgenome, was kindly provided by Ralf Bartenschlager (University of Heidelberg, Heidelberg, Germany). This plasmid was transfected into Huh7.5 cells to generate Huh7.5-SGR cells stably harboring an HCV genotype 1b subgenomic replicon (SGR).
Huh7.5 cells stably harboring an HCV genotype 1b bicistronic replicon (I389-Neo/NS3-3′/5.1) were seeded at the density of 5,000 cells/well in a 96-well plate. The cells were treated for 48 h with the tested compounds diluted in complete DMEM containing 1% dimethyl sulfoxide (DMSO) with 0.5 mg/ml of G418. Total RNA was extracted using the RNeasy 96 kit (Qiagen, Hilden, Germany). HCV-SGR RNA levels were measured by reverse transcriptase quantitative PCR (RT-qPCR) using the TaqMan technology with HCV-specific primers (forward primer, 5′-CGC CCA AAC CAG AAT ACG A-3′; and reverse primer, 5′-AGATAGTACACCCTTTTGCCAGATG-3′) and a qPCR probe (5′-6-carboxyfluorescein [FAM]-CAA TGT GTC AGT CGG-6-carboxytetramethylrhodamine [TAMRA]-0.3′). The data were analyzed with the 2^−ΔΔ^CT method, with all samples normalized to glyceraldehyde-3-phosphate dehydrogenase (GAPDH) mRNA. All experiments were performed in triplicate. HCV-SGR RNA relative quantities were plotted against compound concentrations and fitted with a four-parameter logistic curve with SigmaPlot v11 software. EC50s were determined from the curves.

[3] = tested on: Huh7.5-SGR cells harboring HCV-SGR with neomycin resistance gene; assay type: cell-based, Hepatitis C virus; settings: 100 μM MK-571, 2 weeks, no G418
Source text: FIG 2 Anti-HCV activity of MK-571. (A) Dose-response curve and (B) fold decrease of MK-571 antiviral activity in Huh7.5 cells stably expressing an HCV genotype 1b subgenomic replicon. Data are shown as means ± SD from at least two independent experiments performed in triplicate. […]
We next examined HCV-SGR clearance during 2 weeks of treatment with MK-571. […]

[4] = tested on: HCV-J6/JFH1 (genotype 2a/2a full-length infectious model); assay: Antiviral activity in the HCV infectious model (luciferase reporter); assay type: cell-based, Hepatitis C virus; settings: Huh7.5 cells infected with J6/JFH1, increasing concentrations, 48 h after infection
Method: The anti-HCV activity of MK-571 was then confirmed in a chimeric genotype 2a/2a HCV full-length infectious model (HCV-J6/JFH1) containing a luciferase reporter gene. Huh7.5 cells were infected with HCV-J6/JFH1 in the presence of an increasing concentration of MK-571, and luciferase activity was quantified 48 h after infection. […] However, MK-571 anti-HCV activity appeared higher in the genotype 1b HCV-SGR than the genotype 2a HCV full-length infectious model (Fig. 2D).
Huh7.5 cells were incubated 24 h before infection. Then, cells were infected with HCV (J6/JFH1 strain) at an mutiplicity of infection (MOI) of 0.2 during 8 h in the presence of drugs. HCV-infected cells were washed with phosphate-buffered saline (PBS) and incubated for 48 h in fresh medium containing the drugs. Then, luciferase activity was measured and plotted against compound concentrations.

[5] = Huh7.5 cells, 48 h, read-out: CC50 in Huh7.5 cells

## CCC(CC)(CC(=O)Nc1cccc(/C=C/c2nc(C3CCC3)cs2)c1)C(=O)O [Cinalukast]
[1]; [5]
  CC50 at 48 h: > 100 µM
[2]; Huh7.5-SGR cells
  effect on the anti-HCV activity of MK-571: completely reversed its antiviral effect; also recorded: full reversion achieved at the highest dose tested
  effect on HCV-SGR RNA levels / replication: modest proviral effect on HCV RNA replication

## CCCCC/C=C\C\C=C/C=C/C=C/[C@@H](SC[C@H](N)C(=O)NCC(=O)O)[C@@H](O)CCCC(=O)O [LTD4]
[2]; Huh7.5-SGR cells
  effect on the anti-HCV activity of MK-571: completely reversed its antiviral effect; also recorded: reversed the antiviral effect of 50 μM of MK-571 in a dose-dependent manner
  effect on HCV-SGR RNA levels / replication: did not exert any effect on HCV replication
[2]; in the presence of 50 μM MK-571, Huh7.5-SGR cells
  concentration achieving complete reversion of the antiviral effect of MK-571: 1 µM

## CN(C)C(=O)CCSC(SCCC(=O)O)c1cccc(/C=C/c2ccc3ccc(Cl)cc3n2)c1 (stereo not shown) [MK-571]
[3]
  cell growth in the absence of G418: cell growth was not significantly affected
[4]
  effect on HCV-J6/JFH1 replication (luciferase activity): dose-dependent decrease of HCV-J6/JFH1 RNA replication; also recorded: reduced the replication of the HCV full-length J6/JFH1 model in a dose-dependent manner
[1]; [5]
  CC50 at 48 h: > 100 µM
[2]; 50 μM MK-571 alone, Huh7.5-SGR cells
  fold decrease of HCV-SGR RNA levels: 12 fold and ~11 fold
[2]; 50 μM MK-571 in combination with 1 μM telaprevir, Huh7.5-SGR cells
  fold increase of the anti-HCV effect of telaprevir: approximately 3 fold
[2]; 50 μM MK-571 vs 1 μM telaprevir, Huh7.5-SGR cells
  antiviral effect compared with telaprevir: equivalent to the effect of 1 μM of telaprevir
[2]; Hepatitis C virus, Huh7.5, 48 h, read-out: EC50 for decrease of HCV-SGR RNA
  EC50: 9 ± 0.3 µM
[2]; Huh7.5-SGR cells, genotype 1b replicon
  maximum HCV RNA level reduction: ~1 log10

## CC(C)c1ccc2c(c1)c(SC(C)(C)C)c(CC(C)(C)C(=O)O)n2Cc1ccc(Cl)cc1 [MK-886]
[2]; Huh7.5-SGR cells
  effect on HCV-SGR RNA levels / replication: None of them affected HCV-SGR replication

## O=C(O)c1ccccc1Nc1cccc(OCc2ccc3ccccc3n2)c1 [SR2640]
[1]; [5]
  CC50 at 48 h: 33.4 ± 3.9 µM
[2]; SR2640 alone, at 20 μM, Huh7.5-SGR cells
  maximum increase of HCV-SGR RNA levels: 11 fold
[2]; Huh7.5-SGR cells
  effect on the anti-HCV activity of MK-571: completely reversed its antiviral effect; also recorded: not only reversed its anti-HCV activity but also increased HCV replication at the highest concentrations tested
  effect on HCV-SGR RNA levels / replication: increased HCV-SGR RNA levels in a dose-dependent manner

## CCC[C@H](NC(=O)[C@@H]1[C@H]2CCC[C@H]2CN1C(=O)[C@@H](NC(=O)[C@@H](NC(=O)c1cnccn1)C1CCCCC1)C(C)(C)C)C(=O)C(=O)NC1CC1 [Telaprevir]
[1]
  CC50 at 48 h: > 20 µM

## COc1cc(C(=O)NS(=O)(=O)c2ccccc2C)ccc1Cc1cn(C)c2ccc(NC(=O)OC3CCCC3)cc12 [Zafirlukast]
[1]; [5]
  CC50 at 48 h: > 100 µM
[2]; Huh7.5-SGR cells
  effect on the anti-HCV activity of MK-571: completely reversed its antiviral effect; also recorded: full reversion achieved at the highest dose tested
  effect on HCV-SGR RNA levels / replication: modest proviral effect on HCV RNA replication

## CCCN(CCC)S(=O)(=O)c1ccc(C(=O)O)cc1 [probenecid]
[2]
  effect of MRP-1 inhibitor on MK-571 anti-HCV activity: did not modify its anti-HCV activity; also recorded: lack of effect on MK-571 antiviral activity
[2]; probenecid 1 mM alone, Huh7.5-SGR cells
  effect on HCV-SGR RNA levels: had no effect on HCV replication; also recorded: none of these two compounds reduced HCV-SGR RNA levels; also recorded: lack of anti-HCV activity

## CC(c1cc2ccccc2s1)N(O)C(N)=O (stereo not shown) [zileuton]
[2]; Huh7.5-SGR cells
  effect on HCV-SGR RNA levels / replication: None of them affected HCV-SGR replication

## apigenin homodimer [APN]
[2]
  effect of MRP-1 inhibitor on MK-571 anti-HCV activity: lack of effect on MK-571 antiviral activity
[2]; apigenin homodimer 0.1 μM alone, Huh7.5-SGR cells
  effect on HCV-SGR RNA levels: had no effect on HCV replication; also recorded: none of these two compounds reduced HCV-SGR RNA levels; also recorded: lack of anti-HCV activity
